Results filed as inconclusive are left out. Active and inactive are the calls of the source.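 The calls were made as follows: active = compounds lowering the luciferase signal with a fitted half-maximal dose at most twice their top valid dose (cut at about 30 µM in these data); inconclusive = flat fits with moderate signal loss, or poor fits; inactive = the rest.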
The molecules below were run on Clone20 osteoblast Shn3 3'UTR firefly luciferase, 24 h (assay: Schnurri-3 3'UTR-luciferase signal suppressors – cell-based, Clone20 osteoblasts, luminescence, dry powder, set 2, dose response (AID 743417)).

Compound | AC50
CC(=O)Nc1ccc(Sc2ccc([N+](=O)[O-])o2)cc1 | 2150 nM
C[C@@H]1COC(=O)[C@@H](NC(=O)OCC2c3ccccc3-c3ccccc32)C/C=C\C[C@@H](CC(=O)N(CCO)Cc2ccccc2)C(=O)N1 | 1890 nM
CN(C(=O)OC(C)(C)C)c1ccc(-c2nc3ccccc3s2)cc1 | < 260 nM
CC(=O)Nc1nc(C)c(-c2csc(Nc3cccc(C(C)=O)c3)n2)s1 | 1670 nM
CCCCC(=O)NC(c1ccc(Cl)cc1)c1ccc2cccnc2c1O (stereo not given) | 772 nM
Cc1ccc2c(c1)nnn2C1CCN(S(=O)(=O)c2ccc(C(=O)N3C(C)CCCC3C)cc2)CC1 (stereo not given) | 695 nM
Cn1cc([N+](=O)[O-])c(C(=O)Nc2sc3c(c2C#N)CCC3)n1 | 880 nM
CCCCC(=O)NC(c1ccccc1OC)c1ccc2cccnc2c1O (stereo not given) | 1190 nM
CCC(=O)c1ccc(OCc2ccc(C(=O)c3ccccc3)cc2)cc1 | 3290 nM
CC(=O)N1c2ccc(S(=O)(=O)N3CCC(C(=O)Nc4cccc(F)c4)CC3)cc2CC1C (stereo not given) | 4540 nM
Cc1ccc(-c2cn3cc(C)ccc3n2)cc1 | 1320 nM
C[C@]12CC[C@H](O)CC1=CCC1C2CC[C@@]2(C)C1CCC21OCCO1 (stereo not given in full) | 27300 nM
O=C(Nc1nc(-c2ccccn2)cs1)c1cccc(-n2cnnn2)c1 | 2580 nM
Cc1onc(-c2ccccc2Cl)c1C(=O)N(C)C1CCCCC1 | 2740 nM
Cc1ccccc1CS(=O)(=O)c1nnc([C@H](Cc2ccccc2)NC(=O)OC(C)(C)C)o1 | 1230 nM
O=C(Nc1ccc(N2CCOCC2)cc1)c1ccc(Cl)c(S(=O)(=O)N2CCCC2)c1 | 2170 nM
CCc1nc(N)nc(N)c1-c1ccc(N(C)Cc2ccccc2)c([N+](=O)[O-])c1 | < 260 nM
Cc1ccc(Oc2c(C(N)=O)cc([N+](=O)[O-])cc2[N+](=O)[O-])cc1 | 11900 nM
c1ccc(CNc2ncnc3ccccc23)cc1 | 1500 nM
Oc1ccc(CCNc2ncnc3ccc(Cl)cc23)cc1 | 551 nM
COc1ccc(-n2nc3c(N4CCC(C(=O)NCC(C)c5ccccc5)CC4)nnc(C)c3c2C)cc1 (stereo not given) | 3250 nM
CCc1nc(N2CCN(C(C)=O)CC2)c2c3c(sc2n1)CC(C(C)(C)C)CC3 (stereo not given) | 6760 nM
CSc1cccc(NS(=O)(=O)c2ccc3c(c2)CCN3C(C)=O)c1 | 1490 nM
C[C@H]1CN=C(N(C)C)N1CC1CCC(C(C)(C)C)CC1 (stereo not given in full) | 2270 nM
O=C1C(=C(c2ccccc2)N2CCOCC2)Cc2ccccc21 | 999 nM

Compound | AC50
O[C@@H]1CN(Cc2ccc(-n3cccn3)cc2)CC[C@H]1N1CCN(c2ccccc2F)CC1 | 2130 nM
COc1ccc(OC)c(NC(=O)c2cc(-c3cc(F)ccc3OCC3CCCO3)n[nH]2)c1 (stereo not given) | 10500 nM
Cc1cccc(Cn2c(NCCO)nc3c2c(=O)n(C)c(=O)n3C)c1 | 528 nM
CCOC(=O)Cn1c(=O)c(-c2cc(Br)ccc2N)nc2ccccc21 | 758 nM
CCOc1cc(C(=O)CSc2nnc(CNc3ccc(Cl)cc3)o2)ccc1NC(=O)CC | 7730 nM
c1ccc(CN=C(NCc2ccccc2)NCc2ccccc2)cc1 | 1790 nM
CCOC(=O)c1c(CSc2ccc(CC)cc2)oc2ccc(O)c(CN(C)C)c12 | 3050 nM
COc1cc(C#Cc2c(-c3cncn3C)n(C)c3ccc(-c4ccc(OC)nc4)cc23)cc(OC)c1 | 20500 nM
COC(=O)C1=C(c2ccc3ccccc3c2)C[C@@H]2CC[C@H]1N2C(=O)NCC1CC1 | 6860 nM
CC/C(=C/c1ccccc1)c1cccc2[nH]c3c(OC)cccc3c12 | 32800 nM
CCC(NC(=O)Nc1nnc(C(F)(F)F)s1)(C(F)(F)F)C(F)(F)F | 4150 nM
Cc1cccc(C)c1NC(=O)CN(C)C(=O)c1cc(S(=O)(=O)N(C)C)ccc1N1CCCC1 | 27100 nM
O=C(c1ccc(Cl)cc1)C1CCCN(Cc2cccc3ncccc23)C1 (stereo not given) | 4520 nM
CCN(c1ccccc1)S(=O)(=O)c1ccc(NC(=O)c2nc(S(C)(=O)=O)ncc2Cl)cc1 | 562 nM
CCCc1ccc(C(=O)NNc2cc(Cl)ccc2Cl)cc1 | 2590 nM
C=C1C(=O)OC2C=C(CO)C3OC3C3OC3(C)CC(OC(=O)/C(=C/C)COC(C)=O)C12 (stereo not given) | 5890 nM
CCCn1c(C)cc(C(=O)CN2C(=O)c3ccccc3S2(=O)=O)c1C | 2980 nM
O=C(/C=C/c1ccc(F)cc1)NC(=S)NNC(=O)c1cnccn1 | 1390 nM
Cc1ccc(-c2ccc(/C=C3\C(=O)ON=C3c3ccccc3)o2)c([N+](=O)[O-])c1 | 3300 nM
Cc1nn(C)c(C(=O)NCc2ccc(Cl)cc2)c1Cl | 1740 nM
COCCn1c(CN2CCN(c3cccc(Cl)c3)CC2)nc2c1c(=O)n(C)c(=O)n2C | 10700 nM
Cc1cc(C)c(C(N)=O)c(SCC(=O)c2cc(C)n(-c3cc(C)on3)c2C)n1 | 942 nM
O=c1c2ccccc2nc(/C=C/c2ccc([N+](=O)[O-])o2)n1-c1ccc(O)cc1 | 3240 nM
COc1cc(Nc2nc(-c3ccccc3)c3cc(C)ccc3n2)cc(OC)c1OC | 6550 nM
c1ccc(-c2noc(-c3ccc4ccccc4c3)n2)nc1 | 1980 nM

Compound | AC50
O=S(=O)(Nc1cc(Sc2ncn[nH]2)c(O)c2ccccc12)c1ccccc1 | 7550 nM
NC(=O)c1ccc(N2CCN(S(=O)(=O)c3cccs3)CC2)c([N+](=O)[O-])c1 | 305 nM
COc1cc(CSc2nnnn2-c2ccc(C)cc2)cc(OC)c1OC | 1020 nM
COc1ccc(C(=O)Cn2c(C(=O)/C=C/c3ccccc3)nc3ccccc32)cc1 | 4470 nM
O=S(=O)(c1ccccc1C(F)(F)F)N1CCN(c2ncnc3sccc23)CC1 | 3440 nM
O=C(c1ccccc1)c1ccccc1N1C(=O)C=CC1=O | 16700 nM
CCCCC(=O)NC(c1ccc(OC)cc1)c1ccc2cccnc2c1O (stereo not given) | 2280 nM
CC(C)c1ccc(NC(=O)Nc2nc(C(N)c3ccccc3)cs2)cc1 (stereo not given) | 2480 nM
O=C(c1ccoc1)N1CCN(c2cc(-c3cccc(F)c3)nc3cc(-c4cccc(Cl)c4)nn23)CC1 | 9780 nM
Oc1c(CN2CCCCC2)cc(COCc2ccccc2)c2cccnc12 | 537 nM
CCCCNc1c(-c2ccc(OC)c(SC3CCCCC3)c2)nc2ccc(C)cn12 | 3680 nM
COc1ccc(Cn2c(SCc3ccccc3C)nc3cc(OC)c(OC)cc3c2=N)cc1 | 5460 nM
CC(C)c1ccccc1-n1c(SCC(=O)N2CCc3ccccc3C2)nc2ccccc2c1=O | 2990 nM
Cc1ccc(CS(=O)(=O)c2ncc(Cl)c(C(=O)Nc3ccc(OC(F)F)cc3)n2)cc1 | 2340 nM
Cc1ccc(S(=O)(=O)NCCc2cc3ccc(C)cc3[nH]c2=O)cc1 | > 70000 nM (inactive)
C=C1C(=O)[C@]23C[C@H]1CCC2[C@@]1(C)C(C[C@@H]3O)[C@](C)(C(=O)OC)CC[C@@H]1O (stereo not given in full) | 2580 nM
Fc1ccc2[nH]c3c(N4CCSCC4)ncnc3c2c1 | 2760 nM
COc1cccc(CNc2nc(NCC3CC3)nc3ccsc23)c1OC | 4480 nM
O=C(C1=C[C@@H](C2CC2)C[C@@H](OCCCCO)O1)N1CCN(Cc2ccccc2)CC1 | > 70000 nM (inactive)
CCCNC(=O)c1nnsc1S(=O)(=O)c1ccc(Cl)cc1 | 3630 nM
Cc1ccnc(N/C=C(/NC(=O)c2ccccc2)C(=O)N/N=C\c2ccc(F)cc2)n1 | > 70000 nM (inactive)
Cc1sc2ncnc(N3CCN(CCOc4ccc(Cl)cc4)CC3)c2c1C | 1350 nM
C=CCC[C@H](Cc1ccc(F)cc1)C(=O)OC[C@H](Cc1c[nH]c2ccccc12)NC(=O)[C@@H](CC=C)CC(=O)N[C@H](CO)Cc1ccccc1 | 4440 nM
CSc1nnc(NC(=O)c2nc(S(=O)(=O)Cc3cccc(C)c3)ncc2Cl)s1 | 4030 nM
C=CCN(c1ccccc1)S(=O)(=O)c1cccc(C(=O)Nc2nc3ccccc3[nH]2)c1 | 10000 nM
